Measured values from ChEMBL document CHEMBL4507278 (2021).

Tests used:
[1] = target: Cyclin-dependent kinase 13 (Homo sapiens) (UniProt Q14004); settings: Compound concentration 1000.0 nM
[2] = test system: Phosphatidylinositol 4,5-bisphosphate 3-kinase catalytic subunit alpha isoform (Homo sapiens), P42336 [H1047Y]; settings: Compound concentration 1000.0 nM
[3] = test system: Mast/stem cell growth factor receptor Kit (Homo sapiens), P10721 [V559D]; settings: Compound concentration 1000.0 nM
[4] = target: Testis-specific serine/threonine-protein kinase 3 (Homo sapiens) (UniProt Q96PN8); settings: Compound concentration 1000.0 nM
[5] = target: Muscarinic acetylcholine receptor M4 (Homo sapiens) (UniProt P08173); settings: Compound concentration 10.0 uM
Muscarinic acetylcholine receptor M4 (Homo sapiens), sequence (P08173 whole entry): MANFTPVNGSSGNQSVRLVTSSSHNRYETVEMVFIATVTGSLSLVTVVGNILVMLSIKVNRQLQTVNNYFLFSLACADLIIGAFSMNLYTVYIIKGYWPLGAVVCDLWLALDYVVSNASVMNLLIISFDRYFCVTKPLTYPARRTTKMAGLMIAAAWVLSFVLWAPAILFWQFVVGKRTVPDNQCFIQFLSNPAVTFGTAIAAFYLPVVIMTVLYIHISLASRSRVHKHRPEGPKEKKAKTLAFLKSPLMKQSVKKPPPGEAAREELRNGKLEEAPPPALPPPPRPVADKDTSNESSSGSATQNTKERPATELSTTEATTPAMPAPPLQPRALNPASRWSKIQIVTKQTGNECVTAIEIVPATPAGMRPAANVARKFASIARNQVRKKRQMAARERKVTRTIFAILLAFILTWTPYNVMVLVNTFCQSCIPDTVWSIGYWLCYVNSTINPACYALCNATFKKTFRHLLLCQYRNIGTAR

[6] = target: Dual specificity protein kinase CLK1 (Homo sapiens) (UniProt P49759); settings: Compound concentration 1000.0 nM
Dual specificity protein kinase CLK1 (Homo sapiens), sequence (P49759 whole entry, looked up): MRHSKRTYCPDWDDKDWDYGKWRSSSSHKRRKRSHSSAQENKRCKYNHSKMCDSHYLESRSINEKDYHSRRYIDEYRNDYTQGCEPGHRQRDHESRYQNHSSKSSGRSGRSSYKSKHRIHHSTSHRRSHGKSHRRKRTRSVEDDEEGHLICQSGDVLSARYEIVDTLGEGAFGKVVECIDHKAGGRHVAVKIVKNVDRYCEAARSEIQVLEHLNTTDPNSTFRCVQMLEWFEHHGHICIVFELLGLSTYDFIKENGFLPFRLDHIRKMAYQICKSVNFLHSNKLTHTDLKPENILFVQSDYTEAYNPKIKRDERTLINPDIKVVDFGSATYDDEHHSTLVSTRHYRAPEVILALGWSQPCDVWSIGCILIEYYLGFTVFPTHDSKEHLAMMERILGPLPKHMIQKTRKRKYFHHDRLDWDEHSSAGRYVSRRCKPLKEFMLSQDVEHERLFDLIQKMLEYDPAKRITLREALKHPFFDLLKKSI

[7] = target: Mitogen-activated protein kinase 15 (Homo sapiens) (UniProt Q8TD08); settings: Compound concentration 1000.0 nM
[8] = target: Angiopoietin-1 receptor (Homo sapiens) (UniProt Q02763); settings: Compound concentration 1000.0 nM
[9] = test system: Phosphatidylinositol 4,5-bisphosphate 3-kinase catalytic subunit alpha isoform (Homo sapiens), P42336 [Q546K]; settings: Compound concentration 1000.0 nM
[10] = target: Serine/threonine-protein kinase B-raf (Homo sapiens) (UniProt P15056); settings: Compound concentration 1000.0 nM
Rattus norvegicus = organism: Rattus norvegicus; settings: Compound concentration 10.0 uM
[11] = target: Dual specificity tyrosine-phosphorylation-regulated kinase 1B (Homo sapiens) (UniProt Q9Y463); settings: Compound concentration 1000.0 nM
[12] = target: Serine/threonine-protein kinase PAK 2 (Homo sapiens) (UniProt Q13177); settings: Compound concentration 1000.0 nM
Serine/threonine-protein kinase PAK 2 (Homo sapiens), sequence (Q13177 whole entry): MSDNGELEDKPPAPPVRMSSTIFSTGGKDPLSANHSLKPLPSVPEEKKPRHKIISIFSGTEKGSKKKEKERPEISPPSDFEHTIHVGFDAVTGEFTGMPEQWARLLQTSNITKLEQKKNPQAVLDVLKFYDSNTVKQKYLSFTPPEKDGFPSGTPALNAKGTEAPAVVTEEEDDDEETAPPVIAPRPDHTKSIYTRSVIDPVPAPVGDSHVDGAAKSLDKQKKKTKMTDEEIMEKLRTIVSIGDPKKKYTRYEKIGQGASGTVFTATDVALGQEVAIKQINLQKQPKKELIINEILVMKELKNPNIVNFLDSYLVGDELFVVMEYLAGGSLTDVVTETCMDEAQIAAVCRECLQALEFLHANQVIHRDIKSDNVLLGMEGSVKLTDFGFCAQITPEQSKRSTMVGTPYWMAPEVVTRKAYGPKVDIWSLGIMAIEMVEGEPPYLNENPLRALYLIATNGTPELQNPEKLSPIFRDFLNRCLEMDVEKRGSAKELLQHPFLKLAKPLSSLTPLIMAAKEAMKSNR

[13] = target: Misshapen-like kinase 1 (Homo sapiens) (UniProt Q8N4C8); settings: Compound concentration 1000.0 nM
[14] = target: Mitogen-activated protein kinase 9 (Homo sapiens) (UniProt P45984); settings: Compound concentration 1000.0 nM
Mitogen-activated protein kinase 9 (Homo sapiens), sequence (P45984 whole entry, looked up): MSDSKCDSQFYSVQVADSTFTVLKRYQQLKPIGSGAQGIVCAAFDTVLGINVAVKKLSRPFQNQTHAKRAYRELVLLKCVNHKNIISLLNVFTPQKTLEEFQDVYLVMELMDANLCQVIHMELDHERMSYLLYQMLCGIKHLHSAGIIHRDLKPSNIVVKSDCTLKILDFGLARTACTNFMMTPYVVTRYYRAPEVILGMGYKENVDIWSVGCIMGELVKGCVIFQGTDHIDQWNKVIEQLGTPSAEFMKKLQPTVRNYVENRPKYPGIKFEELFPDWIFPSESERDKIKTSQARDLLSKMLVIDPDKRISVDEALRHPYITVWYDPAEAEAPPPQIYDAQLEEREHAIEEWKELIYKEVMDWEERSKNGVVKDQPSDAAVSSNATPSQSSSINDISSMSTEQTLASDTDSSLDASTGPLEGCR

[15] = target: Serine/threonine-protein kinase PLK4 (Homo sapiens) (UniProt O00444); settings: Compound concentration 1000.0 nM
[16] = target: RAF proto-oncogene serine/threonine-protein kinase (Homo sapiens) (UniProt P04049); settings: Compound concentration 1000.0 nM
[17] = target: T1, 5-hydroxytryptamine receptor 3A (Homo sapiens) (UniProt P46098); settings: Compound concentration 10.0 uM
T1 sequence (whole entry): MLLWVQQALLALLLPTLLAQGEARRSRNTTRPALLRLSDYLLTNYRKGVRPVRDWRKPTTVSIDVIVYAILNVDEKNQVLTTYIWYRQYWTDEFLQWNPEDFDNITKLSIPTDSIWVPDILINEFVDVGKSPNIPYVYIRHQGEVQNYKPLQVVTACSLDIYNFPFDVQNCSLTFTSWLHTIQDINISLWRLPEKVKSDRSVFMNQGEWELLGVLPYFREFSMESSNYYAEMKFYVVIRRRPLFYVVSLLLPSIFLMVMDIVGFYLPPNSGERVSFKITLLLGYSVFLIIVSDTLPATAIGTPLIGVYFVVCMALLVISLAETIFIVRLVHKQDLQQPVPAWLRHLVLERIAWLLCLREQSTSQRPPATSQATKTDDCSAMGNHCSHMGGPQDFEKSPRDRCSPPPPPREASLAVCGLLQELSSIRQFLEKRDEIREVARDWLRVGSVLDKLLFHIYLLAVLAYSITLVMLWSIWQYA

[18] = target: Calcium/calmodulin-dependent protein kinase kinase 1 (Homo sapiens) (UniProt Q8N5S9); settings: Compound concentration 1000.0 nM
[19] = target: Interleukin-1 receptor-associated kinase 3 (Homo sapiens) (UniProt Q9Y616); settings: Compound concentration 1000.0 nM
[20] = target: Serine/threonine-protein kinase Nek6 (Homo sapiens) (UniProt Q9HC98); settings: Compound concentration 1000.0 nM
Serine/threonine-protein kinase Nek6 (Homo sapiens), sequence (Q9HC98 whole entry): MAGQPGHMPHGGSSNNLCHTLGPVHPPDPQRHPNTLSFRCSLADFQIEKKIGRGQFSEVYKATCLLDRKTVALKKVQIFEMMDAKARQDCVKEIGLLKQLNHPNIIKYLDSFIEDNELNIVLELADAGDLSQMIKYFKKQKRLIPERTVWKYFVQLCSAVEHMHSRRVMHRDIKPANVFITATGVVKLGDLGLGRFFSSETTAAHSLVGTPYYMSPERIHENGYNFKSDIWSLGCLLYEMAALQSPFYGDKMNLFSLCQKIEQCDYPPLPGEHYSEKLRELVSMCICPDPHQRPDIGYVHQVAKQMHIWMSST

[21] = target: Serine/threonine-protein kinase Nek4 (Homo sapiens) (UniProt P51957); settings: Compound concentration 1000.0 nM
[22] = target: Homeodomain-interacting protein kinase 3 (Homo sapiens) (UniProt Q9H422); settings: Compound concentration 1000.0 nM
[23] = target: Ephrin type-A receptor 1 (Homo sapiens) (UniProt P21709); settings: Compound concentration 1000.0 nM
[24] = target: Ephrin type-A receptor 4 (Homo sapiens) (UniProt P54764); settings: Compound concentration 1000.0 nM
[25] = target: Ephrin type-A receptor 3 (Homo sapiens) (UniProt P29320); settings: Compound concentration 1000.0 nM
[26] = target: Membrane-associated tyrosine- and threonine-specific cdc2-inhibitory kinase (Homo sapiens) (UniProt Q99640); settings: Compound concentration 1000.0 nM
[27] = target: Tyrosine-protein kinase CSK (Homo sapiens) (UniProt P41240); settings: Compound concentration 1000.0 nM
[28] = target: T2, D(4) dopamine receptor (Homo sapiens) (UniProt P21917); settings: Compound concentration 10.0 uM
T2 sequence (whole entry): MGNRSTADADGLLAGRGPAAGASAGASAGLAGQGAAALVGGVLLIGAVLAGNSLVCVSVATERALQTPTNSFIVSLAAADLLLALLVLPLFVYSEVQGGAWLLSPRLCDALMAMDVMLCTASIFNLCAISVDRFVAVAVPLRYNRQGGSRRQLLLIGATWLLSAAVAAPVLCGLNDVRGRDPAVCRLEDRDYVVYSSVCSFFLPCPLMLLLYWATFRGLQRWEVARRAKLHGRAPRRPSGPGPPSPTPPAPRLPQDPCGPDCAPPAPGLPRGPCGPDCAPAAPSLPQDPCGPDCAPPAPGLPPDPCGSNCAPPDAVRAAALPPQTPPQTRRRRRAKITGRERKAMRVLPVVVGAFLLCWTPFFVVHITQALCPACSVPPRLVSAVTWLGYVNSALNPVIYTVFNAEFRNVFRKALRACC

[29] = target: D(2) dopamine receptor (Homo sapiens) (UniProt P14416); settings: Compound concentration 10.0 uM
D(2) dopamine receptor (Homo sapiens), sequence (P14416 whole entry): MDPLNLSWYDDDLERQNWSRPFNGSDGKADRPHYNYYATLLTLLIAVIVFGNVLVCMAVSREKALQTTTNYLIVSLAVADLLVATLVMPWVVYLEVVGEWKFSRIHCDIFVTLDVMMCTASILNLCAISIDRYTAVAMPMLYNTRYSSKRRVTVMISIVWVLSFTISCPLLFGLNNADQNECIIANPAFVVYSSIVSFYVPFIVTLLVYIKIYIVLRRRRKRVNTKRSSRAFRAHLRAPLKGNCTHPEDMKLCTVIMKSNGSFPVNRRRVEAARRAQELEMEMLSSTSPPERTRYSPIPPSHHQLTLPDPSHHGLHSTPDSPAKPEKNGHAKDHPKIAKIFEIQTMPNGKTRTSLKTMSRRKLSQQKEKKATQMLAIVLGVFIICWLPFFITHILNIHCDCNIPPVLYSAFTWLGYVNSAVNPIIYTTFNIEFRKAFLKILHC

[30] = target: Serine/threonine-protein kinase TAO2 (Homo sapiens) (UniProt Q9UL54); settings: Compound concentration 1000.0 nM
Serine/threonine-protein kinase TAO2 (Homo sapiens), sequence (Q9UL54 whole entry): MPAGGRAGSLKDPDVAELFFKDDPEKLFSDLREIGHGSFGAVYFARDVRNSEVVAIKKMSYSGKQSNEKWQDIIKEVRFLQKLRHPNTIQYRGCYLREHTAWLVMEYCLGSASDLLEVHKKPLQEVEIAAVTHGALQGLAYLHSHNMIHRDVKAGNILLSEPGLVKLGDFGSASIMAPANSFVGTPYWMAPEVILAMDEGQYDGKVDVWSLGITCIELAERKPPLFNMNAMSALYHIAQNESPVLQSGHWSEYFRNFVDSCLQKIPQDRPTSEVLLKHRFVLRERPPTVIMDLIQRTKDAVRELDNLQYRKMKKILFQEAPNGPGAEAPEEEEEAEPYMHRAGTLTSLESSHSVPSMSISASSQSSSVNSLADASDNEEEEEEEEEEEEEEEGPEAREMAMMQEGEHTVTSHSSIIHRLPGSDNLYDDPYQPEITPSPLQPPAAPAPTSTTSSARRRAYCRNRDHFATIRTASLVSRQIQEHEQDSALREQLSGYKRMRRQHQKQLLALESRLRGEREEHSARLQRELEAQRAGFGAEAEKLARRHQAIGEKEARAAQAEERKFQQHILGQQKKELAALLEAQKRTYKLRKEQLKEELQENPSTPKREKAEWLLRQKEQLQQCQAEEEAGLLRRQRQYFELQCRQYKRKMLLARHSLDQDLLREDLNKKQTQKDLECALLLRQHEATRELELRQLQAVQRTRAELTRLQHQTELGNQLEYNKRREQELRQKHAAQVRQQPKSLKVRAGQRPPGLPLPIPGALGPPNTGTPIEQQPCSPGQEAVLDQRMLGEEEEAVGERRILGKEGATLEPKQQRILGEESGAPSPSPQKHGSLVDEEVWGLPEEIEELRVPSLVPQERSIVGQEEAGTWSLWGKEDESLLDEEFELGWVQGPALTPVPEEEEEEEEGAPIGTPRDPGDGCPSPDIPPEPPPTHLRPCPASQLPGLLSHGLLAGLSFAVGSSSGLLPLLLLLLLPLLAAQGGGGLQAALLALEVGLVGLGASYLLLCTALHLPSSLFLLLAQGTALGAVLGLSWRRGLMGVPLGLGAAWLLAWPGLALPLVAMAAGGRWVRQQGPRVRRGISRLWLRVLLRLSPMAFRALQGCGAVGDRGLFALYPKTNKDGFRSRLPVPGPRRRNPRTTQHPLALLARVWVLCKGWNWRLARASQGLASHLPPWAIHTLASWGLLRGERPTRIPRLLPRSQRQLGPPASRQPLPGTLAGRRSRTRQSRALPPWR

[31] = target: Macrophage colony-stimulating factor 1 receptor (Homo sapiens) (UniProt P07333); settings: Compound concentration 1000.0 nM
[32] = test system: Hepatocyte growth factor receptor (Homo sapiens), P08581 [Y1235D]; settings: Compound concentration 1000.0 nM

Mast/stem cell growth factor receptor Kit (Homo sapiens), P10721 [V559D], sequence (P10721 whole entry V559D): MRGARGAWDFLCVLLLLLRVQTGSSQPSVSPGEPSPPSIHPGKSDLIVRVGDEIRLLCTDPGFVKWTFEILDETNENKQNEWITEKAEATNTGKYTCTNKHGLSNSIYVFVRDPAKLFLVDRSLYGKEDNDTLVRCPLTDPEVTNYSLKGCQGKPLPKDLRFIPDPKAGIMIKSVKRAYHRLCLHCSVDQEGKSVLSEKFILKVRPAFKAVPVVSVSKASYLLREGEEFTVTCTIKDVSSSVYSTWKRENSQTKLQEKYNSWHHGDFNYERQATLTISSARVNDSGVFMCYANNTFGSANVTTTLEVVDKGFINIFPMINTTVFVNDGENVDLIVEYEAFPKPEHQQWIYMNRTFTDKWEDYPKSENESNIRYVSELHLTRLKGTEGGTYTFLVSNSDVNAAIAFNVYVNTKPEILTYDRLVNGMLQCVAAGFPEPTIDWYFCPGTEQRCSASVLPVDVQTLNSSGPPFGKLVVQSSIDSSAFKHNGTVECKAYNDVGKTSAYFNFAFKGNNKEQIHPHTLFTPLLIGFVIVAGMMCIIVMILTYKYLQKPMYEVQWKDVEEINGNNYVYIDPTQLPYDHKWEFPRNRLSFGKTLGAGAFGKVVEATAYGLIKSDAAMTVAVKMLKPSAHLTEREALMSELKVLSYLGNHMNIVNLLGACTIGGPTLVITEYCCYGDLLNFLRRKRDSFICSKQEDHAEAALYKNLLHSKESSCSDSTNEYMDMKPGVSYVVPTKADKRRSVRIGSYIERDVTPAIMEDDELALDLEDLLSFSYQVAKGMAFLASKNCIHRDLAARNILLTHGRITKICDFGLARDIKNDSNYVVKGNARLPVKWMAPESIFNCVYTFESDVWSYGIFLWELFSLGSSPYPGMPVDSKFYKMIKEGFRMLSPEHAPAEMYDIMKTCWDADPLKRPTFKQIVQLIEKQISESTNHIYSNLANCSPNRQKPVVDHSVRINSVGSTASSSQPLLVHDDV

CS(=O)(=O)c1cc(C2(NC(=O)c3cncc4c3cnn4-c3ccc(F)cc3)CC2)ccn1 [BI 639667]
inactive: residual activity [1] 100% | residual activity [2] 100% | residual activity [3] 100% | residual activity [4] 100% | inhibition [5] 13.3% | residual activity [6] 98% | residual activity [7] 100% | residual activity [8] 100% | residual activity [9] 66% | residual activity [10] 87% | inhibition (Rattus norvegicus) 17.9% | residual activity [11] 74% | residual activity [12] 100% | residual activity [13] 100% | residual activity [14] 100% | residual activity [15] 85% | residual activity [16] 100% | inhibition [17] 12.9% | residual activity [18] 76% | residual activity [19] 59% | residual activity [20] 100% | residual activity [21] 100% | residual activity [22] 85% | residual activity [23] 100% | residual activity [24] 100% | residual activity [25] 90% | residual activity [26] 85% | residual activity [27] 95% | inhibition [28] -1.14% | inhibition [29] 6.62% | residual activity [30] 97% | residual activity [31] 79% | residual activity [32] 91%

CS(=O)(=O)NCC[C@H](NC(=O)c1cncc2c1cnn2-c1ccc(F)cc1)c1ccnc(S(C)(=O)=O)c1 [BI 9307]
inactive: residual activity [1] 100% | residual activity [2] 100% | residual activity [3] 100% | residual activity [4] 100% | inhibition [5] 10.8% | residual activity [6] 93% | residual activity [7] 100% | residual activity [8] 84% | residual activity [9] 73% | residual activity [10] 79% | inhibition (Rattus norvegicus) -5.04% | residual activity [11] 100% | residual activity [12] 71% | residual activity [13] 100% | residual activity [14] 86% | residual activity [15] 89% | residual activity [16] 76% | inhibition [17] 10.2% | residual activity [18] 100% | residual activity [19] 89% | residual activity [20] 100% | residual activity [21] 100% | residual activity [22] 100% | residual activity [23] 100% | residual activity [24] 100% | residual activity [25] 87% | residual activity [26] 84% | residual activity [27] 98% | inhibition [28] -5.61% | inhibition [29] -5.26% | residual activity [30] 85% | residual activity [31] 100% | residual activity [32] 93%
